Key:
[1] = target: human liver microsomal cytochrome P450 2E1 (CYP2E1) (Homo sapiens, UniProt P05181); assay: Human liver microsomal CYP2E1, chlorzoxazone 6-hydroxylation;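 note: chlorzoxazone added as substrate, 6-hydroxychlorzoxazone formation quantified by LC/MS/MS after 30 min at 37 °C with NADP+ regenerating system, compared against solvent control without test sample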
Description: Microsomes prepared from human liver were used to extract cytochrome P450 2E1 (CYP2E1) and CYP2E1 inhibitors were screened from 39 Chinese medicine guiding drugs and 10 excipients. Chlorzoxazone hydroxylation is a reaction catalyzed primarily by CYP2E1 in liver. The extracted human liver microsomal cytochrome P450 2E1 (CYP2E1) was mixed with its substrate, Chlorzoxazone, and test sample was then added Inhibition of CYP2E1 activity was calculated by measuring CYP2E1 standard metabolite, 6-OH-CZX (6-Hydroxy-Chlorzoxazone), and compared with control 6-OH-CZX.
After incubation, 16 mM Chlorzoxazone and test samples were added to experimental groups; methanol:sterilized water at 1:1 ratio was added to control groups and DDTC was added to positive control groups,
Finally, cofactor 1 mM NADP^+, 10 mM G6P and 2 IU G6PD were added and reaction mixtures were transferred to pre-incubation 37° C. water bath for 1 mM and activity was measured after 30 min of reaction
At the end of reaction, 500 μl acetonitrile was added to stop the reaction followed by 5 g/mL 4-hydroxy-tobutamide after 1 mM incubation. The mixture was then centrifuged and 20 L of supernatant was diluted ten times with methanol/sterilized water and 5 L was used for LC/MS/MS analysis. […] The inhibition of CYP2E1 was then calculated by the following equation:

amidase = assay: Mouse liver microsomal amidase, isoniazid to isonicotinic acid; type: biochemical
Description: Mouse liver microsomes were used as the source of amidase, and isoniazid was used as the amidase metabolism drugs. quantitative isoniazid was catalyzed into metabolites isonicotinic acid (INA) by amidase, and was used as the index for measurement of the amidase activity for establishment of the platform for screening in vitro amidase activity inhibitors. The HPLC system includes a Shimadzu the LC-LOAD pump, 1 Shimadzu system control and a Shimadzu autosampler (Shimadzu Scientific Instrument, Japan). A C18 column (particle size 5 μm, inner diameter of 50×4.6 mm, 25 cm) containing 70% methanol and 30% ammonium formate (50 mM, pH=2.5) of the mobile phase for HPLC separation, and the experimental steps are outlined as follows:
(2) An aliquot of 150 μL mouse liver microsomal solution was added to 100 μL isoniazid solution in 35 μL 67 mM potassium phosphate buffer solution ([…], pH=7) with a final concentration at 3 mM, and then mixed thoroughly with 15 μL amidase inhibitor (deionized water was added in the control group). (3) Incubation at 37° C. water bath for 30 minutes. (4) An aliquot of 300 μL acetonitrile (ACN) was added and mixed thoroughly, and incubated for 6 minutes. (5) An aliquot of 30 μL perchloric acid was then mixed and incubated for 6 minutes. (6) The mixture was centrifuged at 13000 g for 6 minutes. (7) After centrifugation, 100 μL of the supernatant was injected into HPLC. (8) Methanol ammonium formate (50 mM, pH=2.5)=70:30 (V/V) was selected as the mobile phase, and the flow rate was controlled at […] and detected at 270 nm UV. […] The amidase inhibition % was then calculated using the following formula: […]

[2] = Table 6, minimum tested concentration (mg/L) × volume of human liver and intestine (3 L)

human liver microsomal cytochrome P450 2E1 (CYP2E1), sequence (P05181 whole entry): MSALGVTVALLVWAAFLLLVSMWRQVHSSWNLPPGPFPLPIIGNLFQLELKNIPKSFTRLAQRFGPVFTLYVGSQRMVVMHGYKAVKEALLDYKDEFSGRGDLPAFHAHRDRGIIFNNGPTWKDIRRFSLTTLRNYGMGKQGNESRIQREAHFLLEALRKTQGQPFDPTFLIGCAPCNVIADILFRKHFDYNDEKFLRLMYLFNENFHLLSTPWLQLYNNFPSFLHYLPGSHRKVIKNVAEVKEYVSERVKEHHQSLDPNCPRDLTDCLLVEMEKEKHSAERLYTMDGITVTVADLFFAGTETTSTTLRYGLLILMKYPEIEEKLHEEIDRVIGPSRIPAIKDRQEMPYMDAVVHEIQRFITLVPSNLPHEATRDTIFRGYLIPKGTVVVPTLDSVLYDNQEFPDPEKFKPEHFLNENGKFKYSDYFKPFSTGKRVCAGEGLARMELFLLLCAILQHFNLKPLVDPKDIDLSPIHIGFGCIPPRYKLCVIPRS

Row | SMILES | Amidase inhibition (amidase; 1 uM) | Amidase inhibition (amidase; 10 uM) | Amidase inhibition (amidase; 100 uM) | further results
1 | Oc1cc(O)c2c(c1)O[C@@H](c1ccc(O)c(O)c1)[C@@H](O)C2 [(+)-Epicatechin] |  |  |  | Inhibition of CYP 2E1 ([1]; 16.5 μM): 66.71 ± 1.79%; Inhibition of CYP 2E1 ([1]; 33 μM): 52.32 ± 1.59%; Minimum Effective Dose [1, 2]: 16 mg
2 | O=C(O[C@@H]1Cc2c(O)cc(O)cc2O[C@@H]1c1cc(O)c(O)c(O)c1)c1cc(O)c(O)c(O)c1 [(−)-Epigallocetechin-3-gallate] |  |  |  | Inhibition of CYP 2E1 ([1]; 16.5 μM): 50.19 ± 1.89%; Inhibition of CYP 2E1 ([1]; 33 μM): 60.53 ± 2.06%; Inhibition of CYP 2E1 ([1]; 66 μM): 72.16 ± 1.02%
3 | O=[N+]([O-])c1ccc(OP(=O)(O)Oc2ccc([N+](=O)[O-])cc2)cc1 [BNPP, bis-p-nitrophenyl phosphate, reference compound] |  |  |  | Amidase inhibition (amidase; positive control, own concentration not given): 92.1 ± 8.7%
4 | COc1ccc(O)c(C(C)(C)C)c1 [Butylated hydroxyl anisol] |  |  |  | Inhibition of CYP 2E1 ([1]; 16.5 μM): −16.8 ± 0.5%; Inhibition of CYP 2E1 ([1]; 33 μM): −47.1 ± 5.1%; Inhibition of CYP 2E1 ([1]; 66 μM): −85.5 ± 3.9%; Minimum Effective Dose ([1]; Table 7): 9 mg
5 | COc1cc(-c2cc(=O)c3c(O)cc(O)cc3o2)ccc1O [Chrysoeriol] | 7.7 ± 7.1% | 24.9 ± 11.2% | 23.2 ± 1.2% | 
6 | CC12CCC(CC1)C(C)(C)O2 [Cineole] | −16.5 ± 17.5% | −4.7 ± 4.9% | 22.9 ± 10.4% | 
7 | COc1cc(/C=C/C(=O)CC(=O)/C=C/c2ccc(O)c(OC)c2)ccc1O [Curcumin] | 16.9 ± 11.0% | 16.1 ± 0.4% | 9.7 ± 6.0% | 
8 | O=c1c(-c2ccc(O)cc2)coc2cc(O[C@@H]3O[C@H](CO)[C@@H](O)[C@H](O)[C@H]3O)ccc12 [Daidzin] | 3.6 ± 3.0% | 1.1 ± 5.4% | 7.4 ± 6.3% | 
9 | CC(C)[C@@H](C)/C=C/[C@@H](C)[C@H]1CC[C@H]2C3=CC=C4C[C@@H](O)CC[C@]4(C)[C@H]3CC[C@]12C [Ergosterol] | 4.3 ± 10.7% | −0.4 ± 10.7% | 0.4 ± 3.6% | 
10 | C[C@@H]1O[C@@H](OC[C@H]2O[C@@H](Oc3cc(O)c4c(c3)O[C@H](c3ccc(O)c(O)c3)CC4=O)[C@H](O)[C@@H](O)[C@@H]2O)[C@H](O)[C@H](O)[C@H]1O [Eriocitrin] | −16.1 ± 12.8% | 19.0 ± 3.0% | 32.8 ± 1.9% | 
11 | O=C1C[C@@H](c2ccc(O)c(O)c2)Oc2cc(O)cc(O)c21 [Eriodictyol] | 9.0 ± 4.7% | 6.5 ± 11.3% | 22.3 ± 4.7% | 
12 | CCCCCCCCCCCCCC(=O)OCC [Ethyl Myristate] |  |  |  | Minimum Effective Dose [1, 2]: 14 mg
13 | COc1ccc(-c2cc(=O)c3c(O)c(OC)c(OC)cc3o2)cc1O [Eupatorin] | 0.9 ± 2.8% | 7.5 ± 0.7% | 12.0 ± 7.4% | 
14 | O=c1c(O)c(-c2ccc(O)c(O)c2)oc2cc(O)ccc12 [Fisetin] | −9.2 ± 2.5% | 38.3 ± 2.0% | 56.4 ± 2.9% | 
15 | O=c1c(O)c(-c2ccccc2)oc2cc(O)cc(O)c12 [Galangin] | 9.6 ± 9.9% | 32.8 ± 4.4% | 61.5 ± 2.7% | 
16 | CC1(C)[C@@H](O[C@H]2O[C@H](C(=O)O)[C@@H](O)[C@H](O)[C@H]2O[C@@H]2O[C@H](C(=O)O)[C@@H](O)[C@H](O)[C@H]2O)CC[C@]2(C)[C@H]3C(=O)C=C4[C@@H]5C[C@@](C)(C(=O)O)CC[C@]5(C)CC[C@@]4(C)[C@]3(C)CC[C@@H]12 [Glycyrrhizin] | −1.3 ± 3.1% | 4.3 ± 11.3% | 24.4 ± 12.7% | 

Row | SMILES | Amidase inhibition (amidase; 1 uM) | Amidase inhibition (amidase; 10 uM) | Amidase inhibition (amidase; 100 uM) | further results
17 | COc1ccc([C@@H]2CC(=O)c3c(O)cc(O[C@@H]4O[C@H](CO[C@@H]5O[C@@H](C)[C@H](O)[C@@H](O)[C@H]5O)[C@@H](O)[C@H](O)[C@H]4O)cc3O2)cc1O [Hesperidin] |  |  |  | Inhibition of CYP 2E1 ([1]; 16.5 μM): 45.32 ± 1.57%; Inhibition of CYP 2E1 ([1]; 33 μM): 50.91 ± 2.81%; Inhibition of CYP 2E1 ([1]; 66 μM): 58.57 ± 3.78%; Minimum Effective Dose [1, 2]: 33 mg
18 | O=c1cc(-c2ccc(O)c(O)c2)oc2cc(O)c([C@@H]3O[C@H](CO)[C@@H](O)[C@H](O)[C@H]3O)c(O)c12 [Homoorientin] | 7.4 ± 3.8% | 3.5 ± 0.9% | 18.0 ± 2.6% | 
19 | O=c1c(O[C@@H]2O[C@H](CO)[C@H](O)[C@H](O)[C@H]2O)c(-c2ccc(O)c(O)c2)oc2cc(O)cc(O)c12 [Hyperoside] |  |  |  | Minimum Effective Dose [1, 2]: 25 mg
20 | O=C(/C=C/c1ccc(O)cc1)c1ccc(O)cc1O [Isoliquritigenin] | −18.7 ± 26.0% | 17.7 ± 8.3% | 57.2 ± 8.5% | 
21 | CCCCCCCCCCCCO [Lauryl Alcohol] | 2.2 ± 3.1% | −0.7 ± 1.5% | 4.1 ± 4.3% | 
22 | O=C1C[C@@H](c2ccc(O[C@@H]3O[C@H](CO)[C@@H](O)[C@H](O)[C@H]3O)cc2)Oc2cc(O)ccc21 [Liquiritin] | 2.5 ± 2.9% | −7.5 ± 13.4% | 12.5 ± 8.3% | 
23 | COc1ccc([C@@H]2CC(=O)c3c(O)cc(O[C@@H]4O[C@H](CO)[C@@H](O)[C@H](O)[C@H]4O[C@@H]4O[C@@H](C)[C@H](O)[C@@H](O)[C@H]4O)cc3O2)cc1O [Neohesperidin] |  |  |  | Inhibition of CYP 2E1 ([1]; 16.5 μM): 42.81 ± 1.75%; Inhibition of CYP 2E1 ([1]; 33 μM): 48.96 ± 2.37%; Inhibition of CYP 2E1 ([1]; 66 μM): 58.70 ± 1.06%; Minimum Effective Dose [1, 2]: 33 mg
24 | CC1(C)CC[C@]2(C(=O)O)CC[C@]3(C)C(=CC[C@@H]4[C@@]5(C)CC[C@H](O)C(C)(C)[C@@H]5CC[C@]43C)[C@@H]2C1 [Oleanolic Acid] | 20.3 ± 5.2% | 14.8 ± 3.4% | 24.5 ± 4.0% | 
25 | COc1ccc([C@@H]2CC(=O)c3c(O)cc(O[C@@H]4O[C@H](CO)[C@@H](O)[C@H](O)[C@H]4O[C@@H]4O[C@@H](C)[C@H](O)[C@@H](O)[C@H]4O)cc3O2)cc1 [Poncirin] | 10.8 ± 3.8% | 8.1 ± 11.7% | 17.3 ± 5.8% | 
26 | C[C@@H]1O[C@@H](Oc2c(-c3ccc(O)c(O)c3)oc3cc(O)cc(O)c3c2=O)[C@H](O)[C@H](O)[C@H]1O [Quercitrin] |  |  |  | Minimum Effective Dose [1, 2]: 24 mg
27 | C[C@@H]1O[C@@H](OC[C@H]2O[C@@H](Oc3c(-c4ccc(O)c(O)c4)oc4cc(O)cc(O)c4c3=O)[C@H](O)[C@@H](O)[C@@H]2O)[C@H](O)[C@H](O)[C@H]1O [Rutin] |  |  |  | Minimum Effective Dose [1, 2]: 33 mg
28 | COc1ccc(-c2cc(=O)c3c(O)cc(O)c(-c4cc(-c5cc(=O)c6c(O)cc(OC)cc6o5)ccc4OC)c3o2)cc1 [Sciadopitysin] | 10.3 ± 3.8% | 20.7 ± 6.0% | 20.6 ± 19.3% | 
29 | COc1cc(C2Oc3cc([C@H]4Oc5cc(O)cc(O)c5C(=O)[C@@H]4O)ccc3OC2CO)ccc1O (stereo partly drawn) [Silybin] |  |  |  | Minimum Effective Dose [1, 2]: 26 mg
30 | COc1ccc(-c2cc(=O)c3c(OC)c(OC)c(OC)cc3o2)cc1OC [Sinensetin] | −0.8 ± 3.0% | 6.6 ± 0.5% | 9.7 ± 0.9% | 
31 | O=c1cc(-c2ccccc2)oc2c1ccc1ccccc12 [α-Naphthoflavone] | 7.3 ± 7.9% | 19.3 ± 3.7% | 36.9 ± 2.7% | 
